Converted amounts (≈) assume the structure as drawn. Structures can show the parent of a compound that is named as a salt.
How the values were obtained:
[1] = system: human colon tumor with elevated p170 levels (HCTVM); assay: In vitro microdilution inhibition, HCTVM; assay type: cell-based; conditions: 72 hours, 50% of cells killed
Text: (§1) As shown in Table III the compounds of the present invention exert an in vitro antitumor effect. The following cells lines were employed: human lung (A549); resistant human lung with low topo II activity (A549-VP); murine melanoma (B16); human colon tumor (HCT116); human colon tumor with elevated p170 levels (HCTVM); human colon tumor with low topo II activity (HCTVP); and another human colon carcinoma cell line (Moser). In the Table, the designation "NT" indicates the compound was not tested against the specified cell line. The cell lines were maintained in continuous culture at 37°, 5% CO2 and high humidity. Cells were harvested in log phase growth and suspended at concentration of 25,000 cells/mL. A […] aliquot was then added to each well (i.e., 3,750 cells per well) of a 96-well flat bottom plate and the cells were allowed to attach over a 24 hour period. After this 24 hour incubation, a 50 μL sample of the specified compound was added to the first (top) well of each column, and the remaining wells of each column serially diluted, 1:4, and allowed to incubate for 72 hours at 37° C., 5% CO2 and high humidity. Following incubation, 50 μL of freshly prepared stain solution was added to each well. After a 3 hour incubation at room temperature, absorbance was read at 450 nm on a microplate reader to determine the compound concentration at which 50% of the cells were killed, such concentration referred to as the "IC50 ".

[2] = system: human lung (A549); assay: In vitro microdilution inhibition, human lung A549; assay type: cell-based; conditions: A549, 72 hours, 50% of cells killed
Text: as §1

[3] = system: murine melanoma (B16); assay: In vitro microdilution inhibition, B16; assay type: cell-based; conditions: Mus musculus; B16, 72 hours, 50% of cells killed
Text: as §1

[4] = system: resistant human lung with low topo II activity (A549-VP); assay: In vitro microdilution inhibition, resistant human lung A549-VP; assay type: cell-based; conditions: A549VP, 72 hours, 50% of cells killed
Text: as §1

[5] = system: human colon tumor (HCT116); assay: In vitro microdilution inhibition, HCT116; assay type: cell-based; conditions: HCT-116, 72 hours, 50% of cells killed
Text: as §1

[6] = system: p388 murine leukemia; assay: In vivo activity against p388 murine leukemia in an acute mouse model; conditions: for AWC (average weight change per mouse): before treatment to day five
Procedure: CDF1 mice of both sexes weighing between 16 and 25 gm. were used, with a 2 gm. weight range and same sex and source used per experiment. BDF1 mice also were used with the same weight, sex and source parameters. Control and test animals were injected interperitoneally with suspension of 1×10^6 p388 murine leukemia cells (0.5 mL dose) on day 0. Groups of 4-6 mice were used for each dosage amount they were treated with 5 doses on day one. A group of ten saline treated control mice was included in each set of experiments. A 30 day protocol was employed with mean survival time in days being determined for each group of mice with the number of survivors at the end of the 30 day period being noted. The mice were weighed before treatment and again on day five. The values listed for average weight change (AWC) is the average weight change per mouse at the specified dose. The change in weight was taken as a measure of drug toxicity. A loss in weight of up to 2 grams is not considered excessive. The results were determined in terms of % T/C which is the ratio of the mean survival time of the treated group to the mean survival time of the saline treated group times 100.

[7] = system: human colon tumor with low topo II activity (HCTVP); assay: In vitro microdilution inhibition, HCTVP; assay type: cell-based; conditions: 72 hours, 50% of cells killed
Text: as §1

[8] = Mus musculus, P388, 720 h, CDF1 (mixed sex), 5 mg/kg, read-out: % T/C (mean survival time treated/control)
[9] = Mus musculus, P388, 720 h, CDF1 (mixed sex), 15 mg/kg, read-out: % T/C (mean survival time treated/control)
[10] = Mus musculus, P388, 720 h, CDF1 (female only), 4 mg/kg, read-out: % T/C (mean survival time treated/control)
[11] = Mus musculus, P388, 720 h, CDF1 (female only), 12 mg/kg, read-out: % T/C (mean survival time treated/control)
[12] = Mus musculus, P388, 720 h, CDF1 (female only), 36 mg/kg, read-out: % T/C (mean survival time treated/control)

Row | Compound | IC50 [1] | IC50 [2] | IC50 [3] | IC50 [4] | IC50 [5] | IC50 [7] | further results
1 | CCNC1=CC(=O)c2c(O)c3c(c(O)c2C1=O)C(=O)C1(CCc2cccc(O)c21)C3=O (centres unmarked) [Example 15, 2',3'-Dihydro-6-ethylamino-7'-hydroxy-1H-indene-1'-spiro-2-[4,9-dihydroxy-2H-benz[f]-indene-1,3,5,8-tetrone]] | 0.03 µg/mL (≈ 0.0715 µM) | < 0.03 µg/mL | 0.03 µg/mL (≈ 0.0715 µM) | 0.05 µg/mL (≈ 0.119 µM) | 0.03 µg/mL (≈ 0.0715 µM) | 0.05 µg/mL (≈ 0.119 µM) | AWC (average weight change per mouse) ([6]; CDF1 (mixed sex), 5 mg/kg): -0.1; AWC (average weight change per mouse) ([6]; CDF1 (mixed sex), 15 mg/kg): -0.2; % T/C (mean survival time treated/control) ([6]; CDF1 (mixed sex), 45 mg/kg): Toxic; response vs control in vivo at 5 mg/kg [6, 8]: 100%; response vs control in vivo at 15 mg/kg [6, 9]: 115%
2 | COCOc1cccc2c1C1(CC2)C(=O)c2c(O)c3c(c(O)c2C1=O)C(=O)C(NCCO)=CC3=O (centres unmarked) [Example 16, 2',3'-Dihydro-7'-(methoxymethoxy)-1H-indene-1'-spiro-[4,9-dihydroxy-6-(2-hydroxyethylamino)-2H-benz[f]indene-1,3,5,8-tetrone]] | 0.06 µg/mL (≈ 0.125 µM) | < 0.03 µg/mL | 0.03 µg/mL (≈ 0.0626 µM) | 0.04 µg/mL (≈ 0.0834 µM) | 0.05 µg/mL (≈ 0.104 µM) | 0.04 µg/mL (≈ 0.0834 µM) | AWC (average weight change per mouse) ([6]; CDF1 (female only), 3.3 mg/kg): -0.1; AWC (average weight change per mouse) ([6]; CDF1 (female only), 10 mg/kg): -1.1; AWC (average weight change per mouse) ([6]; CDF1 (female only), 30 mg/kg): -2.6; response vs control in vivo at 3.3 mg/kg ([6]; Mus musculus, P388, 720 h, CDF1 (female only), 3.3 mg/kg, read-out: % T/C (mean survival time treated/control)): 95%; response vs control in vivo at 10 mg/kg ([6]; Mus musculus, P388, 720 h, CDF1 (female only), 10 mg/kg, read-out: % T/C (mean survival time treated/control)): 95%; response vs control in vivo at 30 mg/kg ([6]; Mus musculus, P388, 720 h, CDF1 (female only), 30 mg/kg, read-out: % T/C (mean survival time treated/control)): 130%
3 | COCOc1cccc2c1C1(CC2)C(=O)c2c(O)c3c(c(O)c2C1=O)C(=O)C(Nc1ccccc1)=CC3=O (centres unmarked) [Example 18, 2',3'-Dihydro-7'-(methoxymethoxy)-1H-indene-1,-spiro-2-[6-(phenylamino)-4,9-dihydroxy-2H-benz[f]indene-1,3,5,8-tetrone]] | 0.11 µg/mL (≈ 0.215 µM) | 0.08 µg/mL (≈ 0.156 µM) | 0.08 µg/mL (≈ 0.156 µM) | 0.06 µg/mL (≈ 0.117 µM) | 0.09 µg/mL (≈ 0.176 µM) | 0.07 µg/mL (≈ 0.137 µM) | –
4 | O=C1C=CC(=O)c2c(O)c3c(c(O)c21)C(=O)C1(CCc2ccccc21)C3=O [Example 4, 2',3'-Dihydro-1H-indene-1'-spiro-2-[4,9-dihydroxy-2H-benz[f]-indene-1,3,5,8-tetrone]] | 0.3 µg/mL (≈ 0.833 µM) | 1.5 µg/mL (≈ 4.16 µM) | 1 µg/mL (≈ 2.78 µM) | 2.3 µg/mL (≈ 6.38 µM) | 0.3 µg/mL (≈ 0.833 µM) | 0.4 µg/mL (≈ 1.11 µM) | –
5 | CCCCCc1cc2cc3c(c(O)c2c(=O)[nH]1)C1(CC3)C(=O)c2c(O)c3c(c(O)c2C1=O)C(=O)C(NCCN(C)C)=CC3=O (centres unmarked) [Example 25, hydrochloride] | 0.22 µg/mL | 0.14 µg/mL | 0.14 µg/mL | 0.16 µg/mL | 0.27 µg/mL | 0.13 µg/mL | AWC (average weight change per mouse) ([6]; CDF1 (female only), 4 mg/kg): 0.9; AWC (average weight change per mouse) ([6]; CDF1 (female only), 12 mg/kg): -0.7; AWC (average weight change per mouse) ([6]; CDF1 (female only), 36 mg/kg): -1.6; response vs control in vivo at 4 mg/kg [6, 10]: 125%; response vs control in vivo at 12 mg/kg [6, 11]: 105%; response vs control in vivo at 36 mg/kg [6, 12]: 120%
6 | CCCCCc1cc2cc3c(c(O)c2c(=O)[nH]1)C1(CC3)C(=O)c2c(O)c3c(c(O)c2C1=O)C(=O)C(NCC)=CC3=O (centres unmarked) [Example 23, 2',6'7'-trihydro-4,9,9'-trihydroxy-3'-(n-pentyl)-6-ethylamino-spiro[2H-benz[f]-indene-2,8'-[8H]cyclopent[g]-isoquinoline]-1,1',3,5,8-pentone] | 0.22 µg/mL (≈ 0.395 µM) | 0.14 µg/mL (≈ 0.252 µM) | 0.39 µg/mL (≈ 0.701 µM) | 0.1 µg/mL (≈ 0.18 µM) | 0.28 µg/mL (≈ 0.503 µM) | 0.1 µg/mL (≈ 0.18 µM) | AWC (average weight change per mouse) ([6]; CDF1 (female only), 4 mg/kg): 1.8; AWC (average weight change per mouse) ([6]; CDF1 (female only), 12 mg/kg): 1.7; AWC (average weight change per mouse) ([6]; CDF1 (female only), 36 mg/kg): 0.7; response vs control in vivo at 4 mg/kg [6, 10]: 100%; response vs control in vivo at 12 mg/kg [6, 11]: 95%; response vs control in vivo at 36 mg/kg [6, 12]: 100%
7 | CCNC1=CC(=O)c2c(O)c3c(c(O)c2C1=O)C(=O)C1(CCc2cccc(OCOC)c21)C3=O (centres unmarked) [Example 11, 2',3'-Dihydro-6-ethylamino-7'-(methoxymethoxy)-1H-indene-1'-spiro-2-[4,9-dihydroxy-2H-benz[f]-indene-1,3,5,8-tetrone]] | 0.03 µg/mL (≈ 0.0647 µM) | < 0.03 µg/mL | 0.03 µg/mL (≈ 0.0647 µM) | 0.03 µg/mL (≈ 0.0647 µM) | 0.03 µg/mL (≈ 0.0647 µM) | 0.03 µg/mL (≈ 0.0647 µM) | –
8 | CN(C)CCNC1=CC(=O)c2c(O)c3c(c(O)c2C1=O)C(=O)C1(CCc2cccc(O)c21)C3=O (centres unmarked) [Example 24, hydrochloride] | 0.7 µg/mL | 0.5 µg/mL | 0.4 µg/mL | 1.4 µg/mL | 0.2 µg/mL | 1.1 µg/mL | AWC (average weight change per mouse) ([6]; CDF1 (mixed sex), 5 mg/kg): -0.3; AWC (average weight change per mouse) ([6]; CDF1 (mixed sex), 15 mg/kg): -0.3; AWC (average weight change per mouse) ([6]; CDF1 (mixed sex), 45 mg/kg): -0.9; response vs control in vivo at 5 mg/kg [6, 8]: 110%; response vs control in vivo at 15 mg/kg [6, 9]: 110%; response vs control in vivo at 45 mg/kg ([6]; Mus musculus, P388, 720 h, CDF1 (mixed sex), 45 mg/kg, read-out: % T/C (mean survival time treated/control)): 120%
9 | COCOc1cccc2c1C1(CC2)C(=O)c2c(O)c3c(c(O)c2C1=O)C(=O)C(NCC(=O)O)=CC3=O (centres unmarked) [Example 29, 2',3'-Dihydro-7'-(methoxymethoxy)-1H-indene-1'-spiro-2-[6-((carboxymethyl)amino)-4,9-dihydroxy-2H-benz[f]indene-1,3,5,8-tetrone]sodium salt] | 1 µg/mL | 1.2 µg/mL | 0.8 µg/mL | 1.6 µg/mL | 0.9 µg/mL | 1 µg/mL | –
10 | O=C1C(Sc2ccccc2)=C(Sc2ccccc2)C(=O)c2c(O)c3c(c(O)c21)C(=O)C1(CCc2cccc(O)c21)C3=O [Example 32, 2',3'-Dihydro-7'-hydroxy-1H-indene-1'-spiro-2-[4,9-dihydroxy-6,7-di(phenylmercapto)-2H-benz[f]indene-1,3,5,8-tetrone]] | > 16 µg/mL | > 16 µg/mL | > 16 µg/mL | > 16 µg/mL | > 16 µg/mL | > 16 µg/mL | –

— patent publication US5166208A, “Fredericamycin A derivatives” (Boston College, priority 1991, dated 1992)
